Laboratory results reported in patent US6369109B1, “Betulinic acid and derivatives thereof useful for the treatment of neuroectodermal tumor” (Deutsches Krebsforschungszentrum Stiftung des Offentlichen …, priority 1998, dated 2002).
Residues, ends and D or L forms follow the SMILES beside them. *: point of attachment. Cbz = O=C(OCc1ccccc1)*; CH2F = FC*

Tested on: caspase-3, caspase-8 and PARP in cytosolic extracts of SHEP cells
Assay: Cell-free system of apoptosis: cleavage of caspases in cytosolic extracts by mitochondria
Assay type: biochemical, human
Settings: for effect of inhibitor on caspase processing by supernatants from betulinic acid-treated mitochondria: 50 μM bongkrekic acid or 60 μM zVAD-fmk, FIG. 10A
Method: For determination of nuclear fragmentation, nuclei (10^3/μl) were incubated with mitochondria (1 μg/μl) in buffer D (10 mM HEPES, pH 7.4, 50 mM NaCl, 2 mM MgCl2, 5 mM EGTA, 1 mM DDT, 2 mM ATP, 10 mM phosphocreatine, 50 μg/ml creatine kinase, 10 μM cytochalasin B) for 2 h at 37° C. Nuclei were stained with propidium iodide ([…]) and analyzed by flow cytometry. For determination of caspase activation, cytosolic extracts (2 μg/μl) were incubated with mitochondria (1 μg/μl), cytochrome c (0.1-100 μM) or AIF-containing mitochondrial supernatant (0.5 μg/μl) in buffer D for 2 h at 37° C. Partially purified AIF (cytochrome c-free) was prepared as previously described (0.5 mg/ml, Susin et al., 1997, J. Exp. Med. 186, 5-37; Susin et al., 1996, J. Exp. Med. 184, 1331-41). Proteins were separated by 15% SDS-PAGE and Western blot analysis was performed as described above. To confirm equal loading of mitochondrial protein, all Western blots were also developed with an antibody directed against a 60 kDa mitochondrial antigen (data not shown).
SHEP cells transfected with bcl-2 or Bcl-XL or a neomycin resistance vector only were treated with 10 μg/ml betulinic acid for 16 h. Mitochondria were isolated and incubated with cytosolic extracts for 6 h in the presence or absence of 60 μM zVAD-fmk (left panel, cells). Alternatively, mitochondria isolated from untreated cells were incubated with 10 μg/ml betulinic acid or 5 mM atractyloside together with cytosolic extracts for 6 h in the presence or absence of 60 μMZ-VAD-fmk (right panel, mitos, Atra). Cytosolic extracts incubated with mitochondria isolated from untreated cells or with untreated mitochondria were used as control. 40 μg protein per lane isolated front cell lysates were separated by 15% SDS-PAGE. Immunodetection of caspases-3, -8 and PARP protein was performed by mouse anti-caspase-3 mAb, mouse anti-caspase-8 mAb, rabbit anti-PARP polyclonal antibody and ECL.
SHEP cells treated with 10 μg/ml betulinic acid for indicated times. Mitochondria were isolated and incubated with cytosolic extracts for 6 h. Western blot analysis was performed as described above.
Mitochondria isolated from SHEP cells transfected with bcl-2 or Bcl-XL or a neomycrn resistance vector only were treated with 10 μg/ml betulinic acid or 5 mM atractyloside for 0.5 h in the presence or absence of 50 μM bongkrekic acid or 60 μM zVAD-fmk. Mitochondrial supernatants obtained by high speed centrifugation were incubated with cytosolic extracts for 6 h at 37° C. Cytosolic extracts incubated with supernatants of untreated mitochondria were used as control. Western blot analysis was performed as described for FIG. 9A.
For determination of nuclear fragmentation, nuclei (10^3/μl) were incubated with mitochondria (1 μg/μl) in buffer D (10 mM HEPES, pH 7.4, 50 mM NaCl, 2 mM MgCl2, 5 mM EGTA, 1 mM DDT, 2 mM ATP, 10 mM phosphocreatine, 50 μg/ml creatine kinase, 10 μM cytochalasin B) for 2 h at 37° C. Nuclei were stained with propidium iodide ([…]) and analyzed by flow cytometry (Susin et al., 1997 Exp. Cell Res. 236:397-403). For determination of caspase activation, cytosolic extracts (2 μg/μl) were incubated with mitochondria (1 μg/μl), cytochrome c (10 μM) or AIF-containing mitochondrial supernatant (0.5 μg/μl) in buffer D for 2 h at 37° C. Proteins were separated by 15% SDS-PAGE and Western blot analysis was performed as described before.
SHEP cells transfected with Bcl-2 or Bcl-XL or a neomycin resistance vector only (Neo) were treated (Lanes+) with 0.5 μg/ml Doxo or 10 μg/ml Bet A for 16 h. Mitochondria were isolated and incubated with cytosolic extracts for 6 h. in the presence or absence of 60 μm Z-VAD.fmk. Western blot analysis was performed as described in FIG. 14A.

Row | SMILES | effect of inhibitor on caspase processing by supernatants from betulinic acid-treated mitochondria | caspase and PARP processing in cytosolic extracts by mitochondria from drug-treated cells (10 μg/ml betulinic acid or 0.5 μg/ml doxorubicin 16 h, extracts 6 h, FIG. 9A, 15A) | effect of inhibitor on cleavage of caspases by mitochondria from drug-treated cells (60 μM zVAD-fmk, FIG. 9A, 15A)
1 | CO[C@H](C/C=C\C=C\CC/C=C/C[C@H](C)/C=C/C(=C\C(=O)O)CC(=O)O)/C(C)=C\C=C(/C)C(=O)O [bongkrekic acid] | inhibited | – | –
2 | COc1cccc2c1C(=O)c1c(O)c3c(c(O)c1C2=O)C[C@@](O)(C(=O)CO)C[C@@H]3O[C@H]1C[C@H](N)[C@H](O)[C@H](C)O1 [doxorubicin] | – | induced cleavage of caspases-3, -8 and PARP | –
3 | COC(=O)C[C@H](NC(=O)[C@H](C)NC(=O)[C@@H](NC(=O)OCc1ccccc1)C(C)C)C(=O)CF [zVAD-fmk, benzyloxycarbonyl-Val-Ala-Asp-Fluoromethylketone] (Cbz-Val-Ala-Asp(OMe)-CH2F) | inhibited | – | blocked
